Source: patent US20070166729A1, “Method and reagent for sequencing” (Hitachi, Ltd., priority 2005, published 2007)

Tests used:
thermostable PPDK = settings: cited from earlier work; for Specificity / Michaelis constants: thermostable PPDK; for Specificity: relative value in brackets, AMP = 100; for Michaelis constants: substrate named in brackets
ATP sulfurylase = ATP sulfurylase (Saccharomyces cerevisiae, UniProt P08536); settings: read-out: Michaelis constant of reaction for forming the complexes of APS and the enzyme (Km), has been reported; cited from earlier work
luciferase [1] = molecular target: T1, luciferase (Photinus pyralis, UniProt P08659); experiment: APS as substrate for luminescent reaction catalyzed by luciferase; assay type: biochemical; settings: 5 μM APS, reaction solution 100 μl
Experimental: Pyrosequencing detects chemiluminescence derived from ATP produced from the reaction of PPi produced in DNA complementary strand synthesis with APS in the presence of ATP sulfurylase. […] For example, APS, though having approximately 1/1000 of reaction efficiency of ATP, reacts as a substrate with luciferase to emit light. To efficiently convert PPi produced in complementary strand synthesis to ATP, approximately 5 μM APS must usually be added to the reaction solution. When the volume of the reaction solution is set to 100 μl, 5 μM APS generates luminescence corresponding to approximately 500 fmol ATP. Thus, DNA sequencing with high precision by pyrosequencing must employ a DNA sample of a picomole level and large amounts of reagents commensurate therewith.
When sequencing is performed with 0.1 pmol DNA sample, which is 1/10 of the DNA sample amount (1 pmol) conventionally used, the amount of background light must be equal to or lower than the amount of chemiluminescence emitted by 0.01 pmol ATP. […] Under the conditions of pyrosequencing, the efficiency of the luminescence process with ATP as a substrate is reduced due to the coexistence of apyrase, an enzyme that degrades dNTP and ATP. […]

luciferase [2] = molecular target: T1, luciferase; settings: relative to ATP, cited from earlier work
thermostable luciferase = settings: substrate named in brackets; cited from earlier work
[3] = system: luciferase luminescence reaction with ATP produced using PPi; experiment: Luminescence from DNA complementary strand synthesis at varying AMP concentrations (FIG. 7); assay type: biochemical; settings: luminescence obtained by adding DNA
Excerpt: FIG. 7 is a graph showing the relationship between AMP concentrations and signal intensity variations obtained in luciferase luminescence reaction with ATP produced using PPi obtained in DNA complementary strand synthesis. The horizontal axis of the graph indicates AMP concentrations in the reaction solution;
The luminescence obtained by adding DNA (light emitted by PPi obtained in DNA complementary strand synthesis) is generated only in the presence of AMP. […] AMP concentrations giving sufficient luminescence intensity are within the range of 30 to 600 μM. As is obvious, the use of AMP within this concentration range enables sequencing with 0.1 pmol DNA sample.

T1 sequence (P08659 whole entry, species assumed): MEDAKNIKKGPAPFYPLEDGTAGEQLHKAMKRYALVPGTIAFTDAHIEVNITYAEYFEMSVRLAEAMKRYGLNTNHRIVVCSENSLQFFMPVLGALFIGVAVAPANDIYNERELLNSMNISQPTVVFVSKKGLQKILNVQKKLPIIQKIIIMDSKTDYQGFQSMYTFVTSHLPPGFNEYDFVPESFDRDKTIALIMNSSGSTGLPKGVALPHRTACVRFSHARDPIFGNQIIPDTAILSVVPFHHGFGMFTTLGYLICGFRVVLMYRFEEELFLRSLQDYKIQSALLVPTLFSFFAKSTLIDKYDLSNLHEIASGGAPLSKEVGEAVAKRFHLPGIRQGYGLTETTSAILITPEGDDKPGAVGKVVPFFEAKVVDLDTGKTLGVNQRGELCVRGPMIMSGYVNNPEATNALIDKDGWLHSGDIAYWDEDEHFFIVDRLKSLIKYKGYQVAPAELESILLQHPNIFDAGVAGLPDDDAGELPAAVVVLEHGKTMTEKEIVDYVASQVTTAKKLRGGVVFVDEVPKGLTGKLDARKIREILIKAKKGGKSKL
Sequence of ATP sulfurylase (P08536 whole entry, species assumed): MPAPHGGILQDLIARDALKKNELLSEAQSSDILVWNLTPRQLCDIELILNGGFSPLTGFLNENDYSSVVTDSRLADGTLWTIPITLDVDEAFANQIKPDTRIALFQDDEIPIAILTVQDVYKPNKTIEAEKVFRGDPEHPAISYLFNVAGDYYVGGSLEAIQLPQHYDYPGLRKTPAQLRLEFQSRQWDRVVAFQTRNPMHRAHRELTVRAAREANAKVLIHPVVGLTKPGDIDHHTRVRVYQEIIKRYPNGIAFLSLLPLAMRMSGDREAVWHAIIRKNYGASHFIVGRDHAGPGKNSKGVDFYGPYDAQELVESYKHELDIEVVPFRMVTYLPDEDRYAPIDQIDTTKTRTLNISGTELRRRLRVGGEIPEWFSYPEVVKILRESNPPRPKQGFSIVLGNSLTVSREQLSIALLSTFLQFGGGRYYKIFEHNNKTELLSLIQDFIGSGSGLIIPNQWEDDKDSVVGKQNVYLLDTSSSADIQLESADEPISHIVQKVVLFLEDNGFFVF

**Q.** For Nc1ccn([C@@H]2O[C@H](COP(=O)(O)O)[C@@H](O)[C@H]2O)c(=O)n1 [CMP], which Specificity (thermostable PPDK) is on record?
**A.** CMP (0), GMP (0)

**Q.** With Nc1ncnc2c1ncn2[C@@H]1O[C@H](COP(=O)(O)OS(=O)(=O)O)[C@@H](O)[C@H]1O [APS, adenosine 5′-phosphosulfate] as the molecule, how does the Km (ATP sulfurylase) read?
**A.** 0.56 µM

**Q.** And the “luminescence corresponding to ATP” value (luciferase [1])?
**A.** approximately 500 fmol

**Q.** What about the “reaction efficiency of ATP (fraction) as luciferase substrate” value (luciferase [2]) of the same molecule?
**A.** approximately 1/1000

**Q.** What about the “activity to ATP as substrate for luminescent reaction catalyzed by luciferase” value (luciferase [2]; has been reported) of the same molecule?
**A.** 0.6×10^−3

**Q.** Which Specificity (thermostable PPDK) does the source give for O=c1ccn([C@@H]2O[C@H](COP(=O)(O)O)[C@@H](O)[C@H]2O)c(=O)[nH]1 [UMP] here?
**A.** 0

**Q.** Which Specificity (thermostable PPDK) does the source give for Cc1cn([C@H]2C[C@H](O)[C@@H](COP(=O)(O)O)O2)c(=O)[nH]c1=O [TMP] here?
**A.** 0

**Q.** Which Michaelis constants (thermostable PPDK) does the source give for O=P(O)(O)OP(=O)(O)O [PPi, pyrophosphate] here?
**A.** 381 µM

**Q.** For Nc1ncnc2c1ncn2[C@@H]1O[C@H](COP(=O)(O)OP(=O)(O)OP(=O)(O)O)[C@@H](O)[C@H]1O [ATP], which Michaelis constants (thermostable PPDK) is on record?
**A.** 201 µM

**Q.** Which Michaelis constants (thermostable luciferase) does the source give for O=C(O)[C@H]1CSC(c2nc3ccc(O)cc3s2)=N1 [D-luciferin] here?
**A.** 1.5104 M (D-luciferin)

**Q.** With Nc1nc2c(ncn2[C@@H]2O[C@H](COP(=O)(O)O)[C@@H](O)[C@H]2O)c(=O)[nH]1 [GMP] as the molecule, how does the Specificity (thermostable PPDK) read?
**A.** CMP (0), GMP (0)

**Q.** Which results are given for Nc1ncnc2c1ncn2[C@@H]1O[C@H](COP(=O)(O)O)[C@@H](O)[C@H]1O [AMP]?
**A.** AMP concentration at luminescence peak [3]: around 100 μM; Km (thermostable PPDK; have been reported, read-out: Michaelis constants (Km) of PPDK and AMP): 5 µM; Specificity (thermostable PPDK): 100; Michaelis constants (thermostable PPDK): 501 µM

**Q.** With C=C(OP(=O)(O)O)C(=O)O [phosphoenolpyruvate] as the molecule, how does the Michaelis constants (thermostable PPDK) read?
**A.** 281 µM
